Values joined by “and” are separate entries in the source; they are usually repeats but may differ in a detail not shown here. Identical values can stand only once.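 Briefly, cells in 96-well plates were exposed to five compound concentrations for 48 h, and endpoints were estimated by linear interpolation. GI50 marks 50% less growth. TGI: concentration producing complete growth inhibition.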
Legend:
Assay in all cases: growth of human tumour cells (NCI), 48 h
A549 NSCLC = tested on: A549 NSCLC
HT29 colon = tested on: HT29 colon
COLO 205 colon = tested on: COLO 205 colon
OVCAR-5 ovarian = tested on: OVCAR-5 ovarian
HL-60(TB) leukemia = tested on: HL-60(TB) leukemia
SNB-19 CNS = tested on: SNB-19 CNS
RPMI-8226 leukemia = tested on: RPMI-8226 leukemia
CAKI-1 renal = tested on: CAKI-1 renal
SN12C renal = tested on: SN12C renal
NCI-H23 lung = tested on: NCI-H23 lung

SMILES	GI50 (A549 NSCLC) [µM]	TGI (A549 NSCLC)	GI50 (HT29 colon) [µM]	TGI (HT29 colon)	GI50 (COLO 205 colon) [µM]	TGI (COLO 205 colon)	GI50 (OVCAR-5 ovarian) [µM]	TGI (OVCAR-5 ovarian) [µM]	GI50 (HL-60(TB) leukemia)	TGI (HL-60(TB) leukemia) [µM]	GI50 (SNB-19 CNS) [µM]	TGI (SNB-19 CNS)	GI50 (RPMI-8226 leukemia) [µM]	TGI (RPMI-8226 leukemia) [µM]	GI50 (CAKI-1 renal) [µM]	TGI (CAKI-1 renal)	GI50 (SN12C renal) [µM]	TGI (SN12C renal) [µM]	GI50 (NCI-H23 lung) [µM]	TGI (NCI-H23 lung)
O=C(/C=C/c1cccs1)Nc1ncc(Cc2ccccc2F)s1	0.48	> 100 µM	0.21	> 100 µM	0.325	26.9 µM	0.506	> 100	0.213 µM	0.589	0.361	> 100 µM	0.33	> 100	0.0753	> 100 µM	0.633	> 100	2.78	> 100 µM
CCCC/C(C)=N/NC(N)=S		> 100 µM		> 100 µM		> 100 µM		> 100		> 100		> 100 µM		> 100		> 100 µM		> 100		> 100 µM
COc1ccc2c(c1)[n+]([O-])c(-c1ccc(Cl)c(Cl)c1)c(N)[n+]2[O-]		> 100 µM		> 100 µM		33.6 µM		> 100		61		> 100 µM		> 100		> 100 µM		> 100		30.9 µM
CCOC(=O)c1cc2cc([N+](=O)[O-])ccc2oc1=O		> 100 µM		> 100 µM		> 100 µM		> 100		> 100		> 100 µM		> 100		> 100 µM		> 100		> 100 µM
CC(=O)OCC1OC(O[C@@H]2C[C@H]3C(C)(C)[C@H](OC(C)=O)CC[C@]3(C)[C@H]3CC[C@@H]4[C@]5(CC[C@@]4(C)[C@@]32C)O[C@@H]([C@H](O)C(C)(C)O)C[C@@H]5C)C(O)C(O)C1O (some centres not stated)	5.1	18.3 µM	1.83	4.28 µM	4.11	14.3 µM	5.07	17.5	2.93 µM	10.2	12.5	30.5 µM	3.37	19		13.5 µM	11.1	24	12.9	26.9 µM
COc1cc([N+](=O)[O-])c2ncccc2c1O	0.32	1.74 µM	2.26	22.9 µM	1.7	3.46 µM	5.09	> 100	43.3 µM	> 100	3.19	> 100 µM	27.7	> 100	4.84	30.9 µM	3.06	> 100	1.37	4.8 µM
CCc1ccc(/C=C2/SC(=S)NC2=O)cc1	20.8	> 80.2 µM	27.9	> 80 µM	18.3	33.7 µM	24.1	90.6	21.6 µM	57	20.3	> 90.3 µM	16.5	> 76	24	> 81.5 µM	20.3	81.4	18.6	47 µM
COc1cc(Nc2ncc(-c3ccccc3)o2)cc(OC)c1OC	1.66	> 25 µM	0.951	> 25 µM	2.15	> 25 µM	3.88	> 25	0.858 µM	> 9.44	12.6	> 25 µM	16.3	> 25	0.37	> 25 µM	6.35	> 25	2.84	> 25 µM
CCn1c(-c2cc3ccccc3cc2OC(=O)c2ccccc2)n[nH]c1=S	> 50	> 50 µM	42.4	> 50 µM	> 50	> 50 µM	> 50	> 50	32.7 µM	> 50	> 50	> 50 µM	9.96	23.8	24.7	> 50 µM	35.9	> 50	22.5	> 50 µM
C=C1C(=O)O[C@H]2[C@H](OC(C)=O)[C@@H](C)CCC/C(C)=C/CC[C@]3(CO3)[C@H](O)C[C@@H]12	16.9	35 µM	3.23	11.5 µM	3.89	13.7 µM	13.2	26.5	2.31 µM	5.63	15.2	28.5 µM	1.84	5.49	1.91	4.51 µM	4.26	14.3	4.87	18.3 µM
O=C(O)C(O)C(O)C1[O][Sb][O]C1CO (configuration not stated)	> 100	> 100 µM	> 100	> 100 µM	> 100	> 100 µM	> 100	> 100	> 53.1 µM	> 100	> 100	> 100 µM	> 100	> 100	> 100	> 100 µM	> 100	> 100	> 100	> 100 µM
Cc1ccc(S(=O)(=O)ON=C2CC(c3ccccc3)N(C)C(c3ccccc3)C2)cc1 (configuration not stated)		63.1 µM and 55.1 µM		54.7 µM and 57.3 µM		29 µM and 28.3 µM		92.6	7.25 µM and 19.9 µM	> 100		92.8 µM and > 100 µM		48.2		71.5 µM and 44.9 µM		55		62.9 µM and 47.8 µM
C[C@@H]1CC[C@H]2C(CN3CCN(CC4=C(C(F)(F)F)O[C@@H]5O[C@@]6(C)CC[C@H]7[C@H](C)CC[C@@H]4[C@@]57OO6)CC3)=C(C(F)(F)F)O[C@@H]3O[C@@]4(C)CC[C@@H]1[C@]32OO4	3.31	> 100 µM	1.42	> 100 µM	0.996		1.45	> 100	0.382 µM		7.75	> 100 µM	0.43		3.16	> 33.5 µM	3.85	> 100	2.07	> 100 µM
Cc1ccc(Nc2ccnc(Nc3cccc(C(N)=O)c3)n2)cc1O	8.44	> 25 µM	13.9	> 25 µM	10.1	> 20.6 µM	10.2	> 25	8.1 µM	> 25	11.5	> 25 µM	> 25	> 25	4.11	19 µM	3.7	> 25	9.44	> 25 µM
